Experimental data as given in ChEMBL document CHEMBL5442219.

Experiments:
Conditions in all cases: Compound concentration 10 µM
[1] = target: 5-hydroxytryptamine receptor 7 (Homo sapiens) (UniProt P34969)
Description: PDSP Primary Binding target: HTR7 - Compounds are tested at 10 uM concentration, plate are incubated at room temperature in the dark for 90 minutes. Reaction are stopped by vacuum filtration onto 0.3% polyethyleneimine soaked filter mats using Filtermate harvester. Scintilation cocktail is then melted onto microwave-dried filters on a hot plate and the radio activity is counted in Microbia counter.

[2] = target: T1, Muscarinic acetylcholine receptor M2 (Homo sapiens) (UniProt P08172)
T1 sequence (whole entry): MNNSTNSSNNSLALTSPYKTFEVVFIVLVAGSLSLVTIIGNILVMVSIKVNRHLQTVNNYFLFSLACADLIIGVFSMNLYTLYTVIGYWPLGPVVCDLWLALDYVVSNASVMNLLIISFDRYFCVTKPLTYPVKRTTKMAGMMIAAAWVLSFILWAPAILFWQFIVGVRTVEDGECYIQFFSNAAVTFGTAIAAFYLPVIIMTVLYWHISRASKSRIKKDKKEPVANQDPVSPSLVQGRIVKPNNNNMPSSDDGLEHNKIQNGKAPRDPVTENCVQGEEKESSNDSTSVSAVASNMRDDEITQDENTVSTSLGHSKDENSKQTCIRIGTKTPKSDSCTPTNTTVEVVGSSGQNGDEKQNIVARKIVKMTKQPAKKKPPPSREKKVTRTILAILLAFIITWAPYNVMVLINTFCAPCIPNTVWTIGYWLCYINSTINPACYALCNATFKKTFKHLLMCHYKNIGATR
Description: PDSP Primary Binding target: CHRM2 - Compounds are tested at 10 uM concentration, plate are incubated at room temperature in the dark for 90 minutes. Reaction are stopped by vacuum filtration onto 0.3% polyethyleneimine soaked filter mats using Filtermate harvester. Scintilation cocktail is then melted onto microwave-dried filters on a hot plate and the radio activity is counted in Microbia counter.

[3] = target: Delta-type opioid receptor (Homo sapiens) (UniProt P41143)
Chain of Delta-type opioid receptor (Homo sapiens) (P41143 whole entry): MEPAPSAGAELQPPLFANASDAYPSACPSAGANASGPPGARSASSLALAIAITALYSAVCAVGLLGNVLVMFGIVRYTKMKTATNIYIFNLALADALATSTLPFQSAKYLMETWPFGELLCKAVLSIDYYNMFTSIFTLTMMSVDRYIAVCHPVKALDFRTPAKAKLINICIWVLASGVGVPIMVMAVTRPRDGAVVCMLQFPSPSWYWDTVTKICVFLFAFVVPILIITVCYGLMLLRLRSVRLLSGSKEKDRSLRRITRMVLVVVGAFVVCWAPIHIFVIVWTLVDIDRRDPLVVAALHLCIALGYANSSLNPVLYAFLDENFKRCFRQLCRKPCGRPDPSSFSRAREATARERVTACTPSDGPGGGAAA
Description: PDSP Primary Binding target: OPRD1 - Compounds are tested at 10 uM concentration, plate are incubated at room temperature in the dark for 90 minutes. Reaction are stopped by vacuum filtration onto 0.3% polyethyleneimine soaked filter mats using Filtermate harvester. Scintilation cocktail is then melted onto microwave-dried filters on a hot plate and the radio activity is counted in Microbia counter.

[4] = target: T2, 5-hydroxytryptamine receptor 2C (Homo sapiens) (UniProt P28335)
T2 sequence (whole entry): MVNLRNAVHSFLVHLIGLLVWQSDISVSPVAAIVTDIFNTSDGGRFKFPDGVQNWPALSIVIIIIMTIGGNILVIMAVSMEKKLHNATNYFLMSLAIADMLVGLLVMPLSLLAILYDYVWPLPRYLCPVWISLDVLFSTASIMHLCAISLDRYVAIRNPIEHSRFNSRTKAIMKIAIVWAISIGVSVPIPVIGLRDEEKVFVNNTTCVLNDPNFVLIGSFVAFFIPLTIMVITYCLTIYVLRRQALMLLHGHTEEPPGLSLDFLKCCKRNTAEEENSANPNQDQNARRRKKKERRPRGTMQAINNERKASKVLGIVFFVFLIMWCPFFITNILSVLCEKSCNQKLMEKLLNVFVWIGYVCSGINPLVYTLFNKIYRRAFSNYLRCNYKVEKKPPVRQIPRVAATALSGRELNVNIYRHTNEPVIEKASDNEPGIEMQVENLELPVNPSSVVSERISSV
Description: PDSP Primary Binding target: HTR2C - Compounds are tested at 10 uM concentration, plate are incubated at room temperature in the dark for 90 minutes. Reaction are stopped by vacuum filtration onto 0.3% polyethyleneimine soaked filter mats using Filtermate harvester. Scintilation cocktail is then melted onto microwave-dried filters on a hot plate and the radio activity is counted in Microbia counter.

[5] = target: Sodium-dependent noradrenaline transporter (Homo sapiens) (UniProt P23975)
Chain of Sodium-dependent noradrenaline transporter (Homo sapiens) (P23975 whole entry): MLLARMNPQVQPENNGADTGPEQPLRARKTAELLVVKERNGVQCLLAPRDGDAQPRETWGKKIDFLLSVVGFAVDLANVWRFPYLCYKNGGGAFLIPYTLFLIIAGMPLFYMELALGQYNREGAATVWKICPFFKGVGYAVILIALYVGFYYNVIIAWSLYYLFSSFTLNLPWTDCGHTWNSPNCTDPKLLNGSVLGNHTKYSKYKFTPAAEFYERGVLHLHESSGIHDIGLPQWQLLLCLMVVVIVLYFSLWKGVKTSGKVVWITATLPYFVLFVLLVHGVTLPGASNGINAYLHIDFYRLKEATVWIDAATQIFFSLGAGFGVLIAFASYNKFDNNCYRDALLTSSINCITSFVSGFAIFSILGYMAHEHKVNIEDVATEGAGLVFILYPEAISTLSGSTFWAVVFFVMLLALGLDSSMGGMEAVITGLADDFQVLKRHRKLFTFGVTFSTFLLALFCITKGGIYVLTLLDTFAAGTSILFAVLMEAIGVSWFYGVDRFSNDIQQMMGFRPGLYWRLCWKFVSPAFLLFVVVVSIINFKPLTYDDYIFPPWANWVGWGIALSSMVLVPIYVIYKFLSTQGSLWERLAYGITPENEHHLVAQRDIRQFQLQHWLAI
Description: PDSP Primary Binding target: SLC6A2 - Compounds are tested at 10 uM concentration, plate are incubated at room temperature in the dark for 90 minutes. Reaction are stopped by vacuum filtration onto 0.3% polyethyleneimine soaked filter mats using Filtermate harvester. Scintilation cocktail is then melted onto microwave-dried filters on a hot plate and the radio activity is counted in Microbia counter.

[6] = target: Muscarinic acetylcholine receptor M3 (Homo sapiens) (UniProt P20309)
Chain of Muscarinic acetylcholine receptor M3 (Homo sapiens) (P20309 whole entry, looked up): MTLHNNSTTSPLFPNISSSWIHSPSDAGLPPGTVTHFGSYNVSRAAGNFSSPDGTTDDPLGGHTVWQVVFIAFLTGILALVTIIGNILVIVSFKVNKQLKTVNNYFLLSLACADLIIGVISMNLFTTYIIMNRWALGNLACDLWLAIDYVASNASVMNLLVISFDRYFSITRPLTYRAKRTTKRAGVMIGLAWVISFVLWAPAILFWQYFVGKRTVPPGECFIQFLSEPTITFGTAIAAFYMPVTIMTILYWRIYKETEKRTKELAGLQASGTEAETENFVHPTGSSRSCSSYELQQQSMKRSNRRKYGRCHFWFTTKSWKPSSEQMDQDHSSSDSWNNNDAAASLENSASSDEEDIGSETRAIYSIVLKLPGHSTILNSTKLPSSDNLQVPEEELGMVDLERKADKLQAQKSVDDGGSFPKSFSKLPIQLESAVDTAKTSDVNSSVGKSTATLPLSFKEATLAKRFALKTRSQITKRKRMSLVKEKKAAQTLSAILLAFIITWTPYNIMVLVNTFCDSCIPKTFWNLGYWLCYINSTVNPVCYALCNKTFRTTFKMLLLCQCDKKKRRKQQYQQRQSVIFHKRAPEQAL
Description: PDSP Primary Binding target: CHRM3 - Compounds are tested at 10 uM concentration, plate are incubated at room temperature in the dark for 90 minutes. Reaction are stopped by vacuum filtration onto 0.3% polyethyleneimine soaked filter mats using Filtermate harvester. Scintilation cocktail is then melted onto microwave-dried filters on a hot plate and the radio activity is counted in Microbia counter.

[7] = target: T3, Muscarinic acetylcholine receptor M5 (Homo sapiens) (UniProt P08912)
T3 sequence (whole entry): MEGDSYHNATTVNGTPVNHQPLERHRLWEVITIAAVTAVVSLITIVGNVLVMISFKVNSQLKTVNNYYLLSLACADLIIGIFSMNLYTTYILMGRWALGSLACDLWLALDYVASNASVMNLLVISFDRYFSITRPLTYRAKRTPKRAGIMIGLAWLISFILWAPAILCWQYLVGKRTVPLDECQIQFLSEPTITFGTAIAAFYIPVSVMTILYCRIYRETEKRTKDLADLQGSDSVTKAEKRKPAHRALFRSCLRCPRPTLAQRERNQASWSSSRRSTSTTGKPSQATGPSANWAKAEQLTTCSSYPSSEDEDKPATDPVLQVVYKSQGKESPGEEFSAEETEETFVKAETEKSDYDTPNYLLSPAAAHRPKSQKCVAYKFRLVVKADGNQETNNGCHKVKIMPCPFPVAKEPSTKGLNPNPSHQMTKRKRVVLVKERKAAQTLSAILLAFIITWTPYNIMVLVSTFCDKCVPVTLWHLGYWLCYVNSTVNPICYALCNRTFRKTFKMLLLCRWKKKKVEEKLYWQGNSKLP
Description: PDSP Primary Binding target: CHRM5 - Compounds are tested at 10 uM concentration, plate are incubated at room temperature in the dark for 90 minutes. Reaction are stopped by vacuum filtration onto 0.3% polyethyleneimine soaked filter mats using Filtermate harvester. Scintilation cocktail is then melted onto microwave-dried filters on a hot plate and the radio activity is counted in Microbia counter.

[8] = target: 5-hydroxytryptamine receptor 2A (Homo sapiens) (UniProt P28223)
Chain of 5-hydroxytryptamine receptor 2A (Homo sapiens) (P28223 whole entry): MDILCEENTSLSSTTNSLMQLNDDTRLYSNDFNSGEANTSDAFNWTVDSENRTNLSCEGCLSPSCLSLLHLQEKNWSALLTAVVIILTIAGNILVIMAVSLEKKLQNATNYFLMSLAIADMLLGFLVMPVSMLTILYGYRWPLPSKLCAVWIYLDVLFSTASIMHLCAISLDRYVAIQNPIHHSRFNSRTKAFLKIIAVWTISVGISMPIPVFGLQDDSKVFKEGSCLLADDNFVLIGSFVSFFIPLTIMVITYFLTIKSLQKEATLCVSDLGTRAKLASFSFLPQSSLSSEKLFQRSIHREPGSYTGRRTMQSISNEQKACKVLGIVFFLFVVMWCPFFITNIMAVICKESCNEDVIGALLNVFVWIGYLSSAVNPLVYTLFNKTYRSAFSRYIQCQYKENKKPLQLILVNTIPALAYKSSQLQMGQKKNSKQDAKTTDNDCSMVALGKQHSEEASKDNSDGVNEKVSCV
Description: PDSP Primary Binding target: HTR2A - Compounds are tested at 10 uM concentration, plate are incubated at room temperature in the dark for 90 minutes. Reaction are stopped by vacuum filtration onto 0.3% polyethyleneimine soaked filter mats using Filtermate harvester. Scintilation cocktail is then melted onto microwave-dried filters on a hot plate and the radio activity is counted in Microbia counter.

[9] = target: T4, 5-hydroxytryptamine receptor 3A (Homo sapiens) (UniProt P46098)
T4 sequence (whole entry): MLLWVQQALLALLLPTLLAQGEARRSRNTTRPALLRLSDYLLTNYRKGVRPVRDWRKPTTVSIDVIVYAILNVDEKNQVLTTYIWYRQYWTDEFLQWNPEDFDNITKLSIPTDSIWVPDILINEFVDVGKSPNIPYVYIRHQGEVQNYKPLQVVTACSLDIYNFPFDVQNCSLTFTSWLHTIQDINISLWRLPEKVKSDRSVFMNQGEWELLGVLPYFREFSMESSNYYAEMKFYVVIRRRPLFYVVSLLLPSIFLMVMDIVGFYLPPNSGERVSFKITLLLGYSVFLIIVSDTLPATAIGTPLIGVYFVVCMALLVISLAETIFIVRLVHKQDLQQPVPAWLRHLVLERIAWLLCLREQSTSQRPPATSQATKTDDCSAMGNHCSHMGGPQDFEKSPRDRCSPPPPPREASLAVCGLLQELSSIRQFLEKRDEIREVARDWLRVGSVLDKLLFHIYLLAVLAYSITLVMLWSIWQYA
Description: PDSP Primary Binding target: HTR3A - Compounds are tested at 10 uM concentration, plate are incubated at room temperature in the dark for 90 minutes. Reaction are stopped by vacuum filtration onto 0.3% polyethyleneimine soaked filter mats using Filtermate harvester. Scintilation cocktail is then melted onto microwave-dried filters on a hot plate and the radio activity is counted in Microbia counter.

[10] = target: Sodium-dependent serotonin transporter (Homo sapiens) (UniProt P31645)
Chain of Sodium-dependent serotonin transporter (Homo sapiens) (P31645 whole entry, looked up): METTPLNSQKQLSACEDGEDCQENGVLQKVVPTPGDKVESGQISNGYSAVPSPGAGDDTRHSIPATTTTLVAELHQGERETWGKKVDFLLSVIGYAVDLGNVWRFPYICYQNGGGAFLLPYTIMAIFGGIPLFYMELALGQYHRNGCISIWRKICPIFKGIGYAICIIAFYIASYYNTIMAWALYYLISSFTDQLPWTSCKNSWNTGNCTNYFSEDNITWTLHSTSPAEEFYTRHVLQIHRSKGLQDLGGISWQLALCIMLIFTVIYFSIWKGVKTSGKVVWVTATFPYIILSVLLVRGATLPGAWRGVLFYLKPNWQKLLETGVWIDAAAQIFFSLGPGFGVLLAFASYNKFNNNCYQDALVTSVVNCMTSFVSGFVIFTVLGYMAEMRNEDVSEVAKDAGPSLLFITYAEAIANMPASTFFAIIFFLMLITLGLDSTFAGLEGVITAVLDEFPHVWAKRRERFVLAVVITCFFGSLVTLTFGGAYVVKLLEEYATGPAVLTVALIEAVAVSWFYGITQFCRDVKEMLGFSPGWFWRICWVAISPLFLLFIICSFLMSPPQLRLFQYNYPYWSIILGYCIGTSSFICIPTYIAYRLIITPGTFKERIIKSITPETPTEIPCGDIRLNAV
Description: PDSP Primary Binding target: SLC6A4 - Compounds are tested at 10 uM concentration, plate are incubated at room temperature in the dark for 90 minutes. Reaction are stopped by vacuum filtration onto 0.3% polyethyleneimine soaked filter mats using Filtermate harvester. Scintilation cocktail is then melted onto microwave-dried filters on a hot plate and the radio activity is counted in Microbia counter.

[11] = target: Sigma non-opioid intracellular receptor 1 (Homo sapiens) (UniProt Q99720)
Chain of Sigma non-opioid intracellular receptor 1 (Homo sapiens) (Q99720 whole entry): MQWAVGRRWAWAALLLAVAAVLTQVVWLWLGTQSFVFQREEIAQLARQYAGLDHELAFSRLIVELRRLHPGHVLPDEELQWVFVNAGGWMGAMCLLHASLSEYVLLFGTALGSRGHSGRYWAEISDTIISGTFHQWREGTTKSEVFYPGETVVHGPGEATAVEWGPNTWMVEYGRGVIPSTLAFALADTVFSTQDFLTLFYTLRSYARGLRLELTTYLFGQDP
Description: PDSP Primary Binding target: SIGMAR1 - Compounds are tested at 10 uM concentration, plate are incubated at room temperature in the dark for 90 minutes. Reaction are stopped by vacuum filtration onto 0.3% polyethyleneimine soaked filter mats using Filtermate harvester. Scintilation cocktail is then melted onto microwave-dried filters on a hot plate and the radio activity is counted in Microbia counter.

[12] = target: T5, Alpha-1B adrenergic receptor (Homo sapiens) (UniProt P35368)
T5 sequence (whole entry): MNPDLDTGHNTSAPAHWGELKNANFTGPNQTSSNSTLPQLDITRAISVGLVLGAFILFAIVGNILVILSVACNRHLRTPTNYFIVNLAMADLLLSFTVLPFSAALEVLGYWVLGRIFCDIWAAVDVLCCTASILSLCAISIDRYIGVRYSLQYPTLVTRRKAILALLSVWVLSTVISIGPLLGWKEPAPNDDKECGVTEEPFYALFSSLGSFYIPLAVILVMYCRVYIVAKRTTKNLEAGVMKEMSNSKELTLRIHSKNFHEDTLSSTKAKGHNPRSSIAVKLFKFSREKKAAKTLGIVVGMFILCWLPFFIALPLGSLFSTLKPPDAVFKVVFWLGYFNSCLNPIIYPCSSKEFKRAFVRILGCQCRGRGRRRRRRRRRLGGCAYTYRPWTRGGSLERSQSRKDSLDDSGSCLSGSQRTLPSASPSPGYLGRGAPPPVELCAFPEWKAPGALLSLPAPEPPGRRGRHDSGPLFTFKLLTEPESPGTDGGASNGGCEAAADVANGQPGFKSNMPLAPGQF
Description: PDSP Primary Binding target: ADRA1B - Compounds are tested at 10 uM concentration, plate are incubated at room temperature in the dark for 90 minutes. Reaction are stopped by vacuum filtration onto 0.3% polyethyleneimine soaked filter mats using Filtermate harvester. Scintilation cocktail is then melted onto microwave-dried filters on a hot plate and the radio activity is counted in Microbia counter.

[13] = target: D(3) dopamine receptor (Homo sapiens) (UniProt P35462)
Chain of D(3) dopamine receptor (Homo sapiens) (P35462 whole entry): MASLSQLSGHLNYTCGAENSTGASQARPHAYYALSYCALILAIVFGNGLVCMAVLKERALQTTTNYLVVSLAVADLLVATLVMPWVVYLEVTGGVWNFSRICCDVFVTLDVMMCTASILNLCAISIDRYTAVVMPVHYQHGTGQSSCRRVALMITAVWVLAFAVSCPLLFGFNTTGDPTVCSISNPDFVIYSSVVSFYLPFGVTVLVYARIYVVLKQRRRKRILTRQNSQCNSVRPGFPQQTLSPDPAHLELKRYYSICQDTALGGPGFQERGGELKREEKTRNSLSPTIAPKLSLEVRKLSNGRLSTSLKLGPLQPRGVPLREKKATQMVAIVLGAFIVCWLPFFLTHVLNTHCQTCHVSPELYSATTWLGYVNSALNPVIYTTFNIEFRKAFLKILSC
Description: PDSP Primary Binding target: DRD3 - Compounds are tested at 10 uM concentration, plate are incubated at room temperature in the dark for 90 minutes. Reaction are stopped by vacuum filtration onto 0.3% polyethyleneimine soaked filter mats using Filtermate harvester. Scintilation cocktail is then melted onto microwave-dried filters on a hot plate and the radio activity is counted in Microbia counter.

Chain of 5-hydroxytryptamine receptor 7 (Homo sapiens) (P34969 whole entry): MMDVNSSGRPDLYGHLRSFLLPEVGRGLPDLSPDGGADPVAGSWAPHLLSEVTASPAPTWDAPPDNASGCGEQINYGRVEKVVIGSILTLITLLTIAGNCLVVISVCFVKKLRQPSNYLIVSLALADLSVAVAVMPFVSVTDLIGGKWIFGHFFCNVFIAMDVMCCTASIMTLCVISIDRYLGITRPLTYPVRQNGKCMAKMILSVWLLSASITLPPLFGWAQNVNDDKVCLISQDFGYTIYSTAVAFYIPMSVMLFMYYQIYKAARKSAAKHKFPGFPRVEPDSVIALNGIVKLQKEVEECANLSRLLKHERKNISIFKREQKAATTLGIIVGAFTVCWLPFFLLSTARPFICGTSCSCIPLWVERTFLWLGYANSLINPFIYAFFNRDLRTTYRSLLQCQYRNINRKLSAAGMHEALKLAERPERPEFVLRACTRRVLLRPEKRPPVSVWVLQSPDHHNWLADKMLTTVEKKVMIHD

In the case of `N#Cc1ccc2[nH]cc(CCCCN3CCN(c4ccc5oc(C(N)=O)cc5c4)CC3)c2c1`, the inhibition [1] is reported as 82.4%, the inhibition [2] is reported as -4.48% and the inhibition [3] is reported as 35.4%. The inhibition [4] was 43.3%, the inhibition [5] was 98.1% and the inhibition [6] was 12.6%. It also gave an inhibition [7] of 30.6%, an inhibition [8] of 43% and an inhibition [9] of 46.7%. The inhibition [10] was 96%, the inhibition [11] was 99.1% and the inhibition [12] was 53.7%. For the same compound, the inhibition [13] was 95.2%.
